These results are taken from patent publication US11339111B2, “Polyketide compound and derivatives thereof for use in the prevention and treatment of a neurological disorder” (SOCIETE DES PRODUITS NESTLE S.A., priority 2017, dated 2022).

The test system of assay [1] is human iPSc derived into cardiomyocyte. Nature of the assay: Toxicity - ATP content (CellTiter-Glo). The note with it: ATP content after 24 hours. In kind it is cell-based. The procedure: iCell Cardiomyocytes were seeded in 384-well plates. Eight days later cells were treated for 24 hours with compounds. Cell viability was determined by the quantification of intracellular ATP after cell lysis. ATP was used as an indicator of metabolically active cells. ATP was measured using a luminescent cell viability assay (CellTiter-Glo®; […]). Luminescence was measured after 20 min in a Bioteck Synergie Neo multimode reader.
Toxicity of the unsaturated polyketide/macrocyclic lactone compounds were evaluated in human IPS cell derived cardiomyocytes by measuring total ATP in cell lysates.
Dose response of compounds on human iPSc derived into cardiomyocyte with evaluation of the ATP level using cell titer glow. Results were normalized between untreated cells (100%) and positive control (0%).
The unsaturated polyketide/macrocyclic lactone compound mentioned throughout the Examples section is proposed to have the structure corresponding to Compound A as described herein. […]
Y-axis: relative fluorescence unit in percentage, X-axis: logarithm concentration of the compound in mg/ml for fraction and molar for pure compound. […]
In general terms: Cellular ATP, detected with luciferase, serves as a proxy for viable cell number.

Assay [2] concerns human iPSc derived into astrocytes. Briefly: Lactate release dose response in human iPSc derived astrocytes. In kind it is cell-based. The note with it: 2 hours treatment. On the procedure:
Dose response curves were established for compounds identified in the screen to stimulate lactate secretion. The EC50 values for the stimulation of lactate secretion were determined using primary human IPS cell derived astrocytes.
Differentiated human iPSCs (iCell astrocytes, and iCell cardiomyocytes) were obtained from Cellular Dynamics International (CDI, Madison, Wis., USA). iCell astrocytes were cultured in DMEM supplemented with 10% fetal calf serum and N2 complement. iCell cardiomyocytes were maintained in a medium supplied by CDI. Cell cultures were kept in a humidified atmosphere (5% CO2) at 37° C.
Dose response of compounds on lactate release from human iPSc derived into astrocyte fitted with a log (agonist) vs response variable slope to extract efficacy (EC50). Mean±SEM in duplicate.
The unsaturated polyketide/macrocyclic lactone compound mentioned throughout the Examples section is proposed to have the structure corresponding to Compound A as described herein. The toxicity expressed in log IC50 (ATP content after 24 hours compound treatment on human iPSc derived into cardiomyocyte) was compared against the lactate release in log EC50 (lactate secretion after 2 hours compound treatment in human iPSc derived into astrocytes).
Y-axis: relative fluorescence unit, X-axis: logarithm concentration of the compound in mg/ml for fraction and molar for pure compound. […]

For orientation: pIC50 means −log10 of the IC50, conventionally taken in molar units. A word on the IC50: it is the concentration at which inhibition is half-maximal. As a reminder, the pEC50 is the EC50 on a negative log10 scale, so that one unit is a factor of ten.

pEC50, pIC50: −log10 of the molar value. Where two headings read alike, the source gives them in different places.

Consider `C/C1=C\C(C)C(=O)CC(O)/C(C)=C/C(C)CC(C)CCC(C(C)C(=O)O)OC(=O)C(C)C1` (stereo not shown), for which the negative-log IC50 (pIC50) in assay [1] (pure compound (molar), read-out: Cardiomyocytes Toxicity IC50) is less than 4.00. Also, the concentration for half-maximal inhibition (IC50) in assay [1] (pure compound, log of molar concentration, read-out: Cardiomyocytes Toxicity log IC50 (converted)) was more than 100 µM. Moreover, the pEC50 in assay [2] (pure compound (head: mg/ml or M; molar for pure compound), read-out: Astrocytes Lactate release EC50) is 5.80. For the same compound, the EC50 in assay [2] (pure compound, log of molar concentration, read-out: Astrocytes Lactate release logEC50 (converted)) was 2000 nM.
